# Read-outs that look alike come from different tables or passages of the source. Marks after values point to notes of the source that are not given here.
# Experiments:
# [1] = Fluorescence spectra of quinoline chromophores in KMOPS; assay type: physicochemical; conditions: pH 7.2, excitation 365 nm
# Method: The fluorescence spectra of BHQ-OAc, NHQ-OAc, CyHQ-OAc, CHQ-OAc, DMAQ-OAc, DMAQ-Cl-OAc, and TQ-OAc (15 μM in KMOPS, λex=365 nm) are shown in FIG. 18.
# [2] = Dark hydrolysis rate / stability in the dark; assay type: physicochemical; conditions: KMOPS, pH 7.2, dark
# Method: Substrates were dissolved in KMOPS and stored in the dark at room temperature. Samples for HPLC analysis were carried out periodically and injected as described for one-photon photolysis. Data were fit to single exponential decay curves from which the time constant, τ, was calculated.
# [3] = Quantum efficiency for one-photon photolysis (365 nm, HPLC); assay type: physicochemical; conditions: KMOPS, pH 7.2; for Qu (one-photon uncaging quantum efficiency): measured at 365 nm; for Sensitivity Qu × e: one-photon excitation, 365 nm, in M^-1·cm^-1
# Method: The quantum efficiency of BHQ-ATP (159) decay and ATP recovery were determined by photolyzing a KMOPS solution of BHQ-ATP (159) (100 μM) with light from a 365 nm lamp through a set of filters that narrowed the band of light to a tight 30 nm range around 365 nm. Aliquots (20 μL) were taken out from the photolysis cuvette after a time interval of 0, 10, 20, 40, 60, or 90 secs, and HPLC analyses of these samples with a reverse phase C18 column and 85% 25 mM KH2PO4 buffer (pH=6.2)/15% methanol solvent system were carried out. The BHQ-ATP (159) peak (retention time=4.2 min.) and ATP peak (retention time=2.8 min.) were recorded and analyzed.
# KMOPS-buffered solutions (3 mL) of the substrates (100 μM) in quartz cuvettes (21-Q-10, Starna, Atascadero, Calif.) were irradiated with 365 nm UV light from a mercury lamp (Spectroline SB-100P; Spectronics, Westbury, N.Y.) with a light filter. The spectral output of the lamp after the glass filters (CSO-52 and CS7-60, Ace Glass, Vineland, N.J.) has a band between 350 nm and 380 nm. The duration of each irradiation period ranged from 5 sec to 60 sec. After each period of irradiation, a 20 μL aliquot of the solution was removed for analysis by HPLC, using an external standard method to determine concentrations.
# The analytes were eluted isocratically (flow rate of 1 mL/min) with acetonitrile and water containing 0.1% TFA (Table 1). The only exception is that BHQ-caged ATP was eluted with methanol and 25 mM KH2PO4 buffer (pH=6.2). The progress curves were plotted and fit to a single exponenial decay curve. The uncaging quantum efficiency (Qu) of each chromophore was calculated using Qu=(Iσt90%)^−1, where I is the radiant power in einstein·cm^−2s^−1, σ is the decadic extinction coefficient (10^3×ε, molar extinction coefficient) in cm^−2·mol^−1, and t90% is the irradiation time in s for 90% conversion to product (as described by Adams et al. (J. Am. Chem. Soc. (1988) 110: 3212-3220) incorporated herein by reference in its entirety). The UV intensity of the lamp was measured by potassium ferrioxalate actinometry (as described by Hatchard & Parker (Proc. Roy. Soc. London, Ser. A (1956) 235: 518-536) incorporated herein by reference in its entirety) in the same setup. ATP was monitored for its formation during the process, plotted, and fitted to an exponential rise to max curve.
# [4] = UV absorption of quinoline chromophores in KMOPS buffer; assay type: physicochemical; conditions: pH 7.2
# Description: It has two absorptive bands beyond 300 nm, one at 320 nm and the other at 370 nm. The 370 nm absorption band arises from the phenolate form of the BHQ skeleton, and the 320 nm absorption band is from the phenol form. […] The λmax of BHQ-ATP (159) is 376 nm, and the extinction coefficient at this wavelength is 1300 M^−1cm^−1. […]
# [5] = Two-photon uncaging action cross-section (740 nm, Tsien's method, fluorescein reference); assay type: physicochemical; conditions: for δu (two-photon uncaging action cross-section): KMOPS, pH 7.2, measured at 740 nm; for λa (calculated 2-photon absorbance cross-section): calculated from du = da × Qu
# Method: BHQ-ATP (159) (100 μM in KMOPS, pH=7.2) was photolyzed with a Chameleon Ultra II laser at 740 nm in 25-μL aliquots. The irradiation time intervals of the pulsed laser were 0, 5, 10, 20, and 40 min. Three samples of each time interval were collected and analyzed by HPLC using the same method as in the one-photon photolysis. Using Tsien's method of determining two-photon uncaging action cross-section with a fluorescence reference solution, the two-photon uncaging action cross-section of BHQ-ATP (159) was measured to be 0.17 GM. The ATP yield was about 40%.
# Measurements were carried out in microcuvettes (10×1×1 mm illuminated dimensions) with an effective filling volume of 20 μL (26.10F-Q-10, Starna, Atascadero, Calif.). The IR laser used was from a fs-pulsed and mode-locked Ti:sapphire laser (Mira 900 pumped by a Verdi, Coherent, Santa Clara, Calif. or a Chameleon Ultra II) focused on the center of the cuvette chamber with a 25-mm focal length lens optimized for IR lasers (06LXP003/076, Melles-Griot, Irvine, Calif.). The pulse width of the laser was 144 fs for Mira 900. The laser beam was attenuated by passing the beam through an electro-optical modulator or a ½-waveplate and polarizing beamsplitter cube so that the average power exiting the apparatus was 300-350 mW.
# Successive aliquots (25 μL) of each caged compound in KMOPS were placed into the cuvette and irradiated for 0, 5, 10, 20, and 40 min. Each aliquot was analyzed by HPLC to determine the concentration of the remaining caged compound as described for determining the uncaging quantum efficiency for one photon photolysis. The progress curves were plotted, and fitted to a single exponential decay curve. The formation of ATP was monitored, plotted, and fitted to a single exponential rise to max curve. For compounds 1c, 2a, 2b, and 3 (τdark<50 h), a correction was made for background dark hydrolysis that occurred while the irradiated samples were waiting for HPLC analysis. The fraction of the decay from hydrolysis in the dark was calculated using the measured dark hydrolysis rate and the waiting time from the end of the experiment until the HPLC injection. This value was subtracted from the total decay (hydrolysis+photolysis) measured by HPLC.
# The two-photon uncaging cross-section (δu) was determined using Tsien's method, (as described by Furuta et al., (1999) Proc. Natl. Acad. Sci. U.S.A. 96: 1193-1200 (incorporated herein by reference in its entirety), referencing to fluorescein, a compound with a known fluorescence quantum yield (Qf=0.9) and absorbance cross-section (δa=30 GM at 740 nm), using the following equation: […]
# Np is the number of molecules photolyzed per unit time (molecules/s, determined by HPLC analysis of the reaction); φ is the collection efficiency of the detector (SED033 on an IL-1700, International Light, Newburyport, Mass.) used to measure the fluorescence of fluorescein emitted at a right angle to the beam and passed though a 535/45 nm bandpass filter; CF is the concentration of the fluorescein standard (mol/L); <F(t)> is the time averaged fluorescent photon flux (photons/s) of the fluorescein standard collected by the detector; and CS is the initial concentration of the caged compound (mol/L). The light-induced uncaging of —OAc from a variety of caging moieties is illustrated in FIG. 23.
# renal Na,K-ATPase = molecular target: T1, renal Na,K-ATPase (Homo sapiens, UniProt P05023); conditions: incubated with renal Na,K-ATPase, Kaplan et al. 1978; cited from earlier work
# T1 construct: host or cells: kidney (renal) enzyme, as reported by Kaplan et al. 1978
# [6] = literature value; cited from earlier work
# [7] = KMOPS, pH 7.2; 740 nm; value taken from Fedoryak & Dore, Org. Lett. 2002; cited from earlier work
# [8] = KMOPS, pH 7.2; 365 nm; value taken from Fedoryak & Dore, Org. Lett. 2002; cited from earlier work
# [9] = KMOPS, pH 7.2; value taken from Fedoryak & Dore, Org. Lett. 2002; cited from earlier work
# [10] = KMOPS, pH 7.2; value taken from Fedoryak & Dore, Org. Lett. 2002; cited from earlier work; remark: listed apart in the source
# [11] = literature; cited from earlier work
λem [1],τdark (time constant for hydrolysis in the dark) [2],Qu (one-photon uncaging quantum efficiency) [3],Sensitivity Qu × e [3],ε (extinction coefficient at λmax) [4],λmax [4],δu (two-photon uncaging action cross-section) [5],λa (calculated 2-photon absorbance cross-section) [5],Compound,also measured
496 nm,31 h,0.046,211,4600 M⁻¹ cm⁻¹,368 nm,0.13 GM,2.8 GM,"CC(=O)OCc1ccc2ccc(N(C)C)cc2n1 [DMAQ-OAc (2a), (7-(Dimethylamino)quinolin-2-yl)methyl acetate]",–
493 nm,34 h,0.090,234,3300 M⁻¹ cm⁻¹,386 nm,0.47 GM,5.2 GM,"CC(=O)OCc1cc(Cl)c2ccc(N(C)C)cc2n1 [DMAQ-Cl—OAc (2b), (4-Chloro-7-(dimethylamino)quinolin-2-yl)methyl acetate]",–
–,–,–,–,–,–,–,–,"Nc1ncnc2c1ncn2C1OC(COP(=O)(O)OP(=O)(O)OP(=O)(O)OCc2ccccc2[N+](=O)[O-])C(O)C1O (stereo not drawn) [NB-ATP, 2-nitrobenzyl ester of ATP]","substrate or inhibitor of Na,K-ATPase before irradiation (renal Na,K-ATPase): neither a substrate nor inhibitor of this enzyme"
492 nm,49 h,0.10,280,2800 M⁻¹ cm⁻¹,370 nm,0.12 GM,1.2 GM,"CC(=O)OCc1ccc2ccc(O)c(Cl)c2n1 [CHQ-OAc (1c), (8-Chloro-7-hydroxyquinolin-2-yl)methyl acetate]",–
–,–,–,–,–,–,–,–,"COc1cc(OC)cc(C(OP(=O)(O)OP(=O)(O)OP(=O)(O)OCC2OC(n3cnc4c(N)ncnc43)C(O)C2O)C(=O)c2ccccc2)c1 (stereo not drawn) [DMB-ATP, P^3-[1-(3,5-dimethoxyphenyl)-2-phenyl-2-oxo]ethyl ester of ATP]",ATP release rate [6]: > 10^5 sec^−1
–,–,–,–,–,–,–,–,"CC(OP(=O)(O)OP(=O)(O)OP(=O)(O)OCC1OC(n2cnc3c(N)ncnc32)C(O)C1O)c1ccccc1[N+](=O)[O-] (stereo not drawn) [NPE-ATP, P^3-1-(2-nitrophenyl)ethyl ester of ATP]",ATP release rate [6]: 118 s⁻¹
–,278 h,0.00,0,6500 M⁻¹ cm⁻¹,350 nm,0.00 GM,–,"CC(=O)OCc1ccc2ccc(O)c([N+](=O)[O-])c2n1 [NHQ-OAc (1a), 7-Hydroxy-8-nitroquinolin-2-yl methyl acetate]",–
–,–,–,–,–,–,–,–,"CN(C)c1ccc2c(COP(=O)(O)OP(=O)(O)OP(=O)(O)OCC3OC(n4cnc5c(N)ncnc54)C(O)C3O)cc(=O)oc2c1 (stereo not drawn) [DMACM-caged ATP, [7-(dimethylamino)coumarin-4-yl]methyl ATP]",ATP release rate [6]: 1.6e+09 s⁻¹
436 nm,500 h,0.31,2387,7700 M⁻¹ cm⁻¹,364 nm,0.32 GM,1.0 GM,"CC(=O)OCc1ccc2ccc(O)c(C#N)c2n1 [CyHQ-OAc (1b), (8-Cyano-7-hydroxyquinolin-2-yl)methyl acetate]",–
–,–,–,–,–,–,–,–,COc1cc(C(C)OP(=O)(O)OP(=O)(O)OP(=O)(O)OC[C@H]2O[C@@H](n3cnc4c(N)ncnc43)[C@H](O)[C@@H]2O)c([N+](=O)[O-])cc1OC (stereo partly drawn) [DMNPE-ATP],λmax [11]: 350 nm

Compound,λem [1],τdark (time constant for hydrolysis in the dark) [2],Qu (one-photon uncaging quantum efficiency) [3],Sensitivity Qu × e [3],ε (extinction coefficient at λmax) [4],λmax [4],δu (two-photon uncaging action cross-section) [5],λa (calculated 2-photon absorbance cross-section) [5],also measured
CC(=O)OCc1ccc2ccc(O)c(Br)c2n1 [BHQ-OAc],478 nm,–,–,754,–,–,–,2.0 GM,δu (two-photon uncaging action cross-section) [7]: 0.59^g GM; Qu (one-photon uncaging quantum efficiency) [8]: 0.29^g; ε [9]: 2600^g M^−1 · cm^−1; λmax [9]: 369^g nm; τdark (time constant for hydrolysis in the dark) [10]: 71^g h
